Data reported in PubChem BioAssay (NCI).
Several values for one entry are separate records, joined by “and”; a condition that tells them apart may be missing. Equal values may be shown once.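 The compound was tested at five concentrations on cells cultured in 96-well plates, with a 48-hour exposure period. GI50 = concentration required for 50% inhibition of growth. TGI: total growth inhibition.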

Legend:
Assay in all cases: NCI-60 cell line screen, 48 h
[1] = test system: SK-MEL-28 melanoma
[2] = test system: HT29 colon
[3] = test system: HL-60(TB) leukemia
[4] = test system: MDA-MB-435
[5] = test system: 786-0 renal
[6] = test system: CAKI-1 renal
[7] = test system: HOP-92 NSCLC
[8] = test system: A498 renal
[9] = test system: NCI-H460 lung
[10] = test system: SK-OV-3 ovarian
[11] = test system: COLO 205 colon
[12] = test system: TK-10 renal
[13] = test system: NCI-H226 lung
[14] = test system: NCI-H522 lung
[15] = test system: MDA-MB-231 breast
[16] = test system: SF-295 CNS
[17] = test system: ACHN renal
[18] = test system: OVCAR-4 ovarian
[19] = test system: A549 NSCLC
[20] = test system: SW-620 colon
[21] = test system: PC-3 prostate
[22] = test system: SN12C renal
[23] = test system: SR leukemia
[24] = test system: MALME-3M melanoma
[25] = test system: T-47D breast
[26] = test system: NCI/ADR-RES ovarian
[27] = test system: SNB-19 CNS
[28] = test system: SK-MEL-5 melanoma
[29] = test system: U251 CNS
[30] = test system: UACC-257 melanoma
[31] = test system: RXF 393 renal
[32] = test system: MCF7 breast
[33] = test system: CCRF-CEM leukemia
[34] = test system: OVCAR-3 ovarian
[35] = test system: EKVX NSCLC
[36] = test system: KM12 colon
[37] = test system: HS 578T breast
[38] = test system: RPMI-8226 leukemia
[39] = test system: HCT-116 colon
[40] = test system: OVCAR-8 ovarian
[41] = test system: SF-268 CNS
[42] = test system: OVCAR-5 ovarian
[43] = test system: UACC-62 melanoma
[44] = test system: MOLT-4 leukemia
[45] = test system: UO-31 renal
[46] = test system: DU-145 prostate
[47] = test system: NCI-H23 lung
[48] = test system: K-562 leukemia
[49] = test system: SK-MEL-2 melanoma
[50] = test system: SNB-75 CNS
[51] = test system: HOP-62 NSCLC
[52] = test system: HCC-2998 colon
[53] = test system: LOX IMVI melanoma
[54] = test system: SF-539 CNS
[55] = test system: IGROV1 ovarian
[56] = test system: HCT-15 colon
[57] = test system: M14 melanoma
[58] = test system: BT-549 breast

CO[C@@H](C)Cn1c(=O)n(C)c2cnc3ccc(-c4cncc(C(C)(C)O)c4)cc3c21
GI50 [1]: 143 nM and 77.3 nM
TGI [1]: 2500 nM and 573 nM
GI50 [2]: 93.3 nM and 75.6 nM
TGI [2]: 12700 nM and > 6870 nM
GI50 [3]: 717 nM and 361 nM
TGI [3]: 9780 nM and > 6740 nM
GI50 [4]: 146 nM and 71.8 nM
TGI [4]: 3440 nM and 1160 nM
GI50 [5]: 59 nM and 41.8 nM
TGI [5]: 2200 nM and 1990 nM
GI50 [6]: 50.5 nM
TGI [6]: 512 nM
GI50 [7]: 109 nM and 27.9 nM
TGI [7]: 644 nM and 188 nM
GI50 [8]: 27.3 nM and 10.9 nM
TGI [8]: 124 nM and 59.1 nM
GI50 [9]: 143 nM and 53.9 nM
TGI [9]: > 100000 nM
GI50 [10]: 48.8 nM and 42.4 nM
TGI [10]: 358 nM and 285 nM
GI50 [11]: 145 nM and 92.4 nM
TGI [11]: 1510 nM and 1490 nM
GI50 [12]: 120 nM and 69.4 nM
TGI [12]: 719 nM and 536 nM
GI50 [13]: 40.6 nM
TGI [13]: 477 nM
GI50 [14]: 51.3 nM
TGI [14]: 653 nM
GI50 [15]: 166 nM and 44 nM
TGI [15]: 3870 nM and 2120 nM
GI50 [16]: 49.5 nM and 37.3 nM
TGI [16]: 422 nM and 328 nM
GI50 [17]: 135 nM and 97.5 nM
TGI [17]: > 100000 nM
GI50 [18]: 105 nM and 51.4 nM
TGI [18]: 676 nM and 667 nM
GI50 [19]: 76.8 nM and 53.5 nM
TGI [19]: 1570 nM and > 3220 nM
GI50 [20]: 248 nM and 110 nM
TGI [20]: 16400 nM and > 10000 nM
GI50 [21]: 161 nM and 44.5 nM
GI50 [22]: 112 nM and 54.4 nM
TGI [22]: 70000 nM and > 10000 nM
GI50 [23]: 153 nM and 113 nM
TGI [23]: 14900 nM and > 10000 nM
GI50 [24]: 58.4 nM and 63.8 nM
TGI [24]: 317 nM and 480 nM
GI50 [25]: 40.9 nM and 28.4 nM
TGI [25]: 378 nM and 208 nM
GI50 [26]: 1060 nM and 384 nM
TGI [26]: 14000 nM and > 10000 nM
GI50 [27]: 143 nM and 77.3 nM
TGI [27]: 7790 nM and > 10000 nM
GI50 [28]: 103 nM and 99.2 nM
TGI [28]: 408 nM and 418 nM
GI50 [29]: 127 nM and 63.3 nM
TGI [29]: 12600 nM and > 10000 nM
GI50 [30]: 195 nM and 93.2 nM
TGI [30]: 741 nM and 538 nM
GI50 [31]: 41.6 nM and 32.5 nM
TGI [31]: 341 nM and 216 nM
GI50 [32]: 140 nM and 59.3 nM
TGI [32]: 47900 nM and > 10000 nM
GI50 [33]: 203 nM and 87.4 nM
TGI [33]: > 100000 nM
GI50 [34]: 119 nM and 65.6 nM
TGI [34]: 6490 nM and > 3390 nM
GI50 [35]: 69.1 nM and 66.9 nM
TGI [35]: 847 nM and 1400 nM
GI50 [36]: 326 nM and 122 nM
TGI [36]: 12700 nM and > 10000 nM
GI50 [37]: 28.6 nM
TGI [37]: 191 nM
GI50 [38]: 186 nM and 59 nM
TGI [38]: 2060 nM and 968 nM
GI50 [39]: 303 nM and 187 nM
TGI [39]: 10800 nM and > 7650 nM
GI50 [40]: 154 nM and 69.7 nM
TGI [40]: 2900 nM and > 4100 nM
GI50 [41]: 140 nM and 79.6 nM
TGI [41]: 16800 nM and > 5750 nM
GI50 [42]: 191 nM and 95.6 nM
TGI [42]: > 100000 nM
GI50 [43]: 97.6 nM and 39.4 nM
TGI [43]: 413 nM and 255 nM
GI50 [44]: 196 nM and 163 nM
TGI [44]: 1770 nM and 4100 nM
GI50 [45]: 34.8 nM and 23.7 nM
TGI [45]: 346 nM and 336 nM
GI50 [46]: 93.5 nM and 59.1 nM
TGI [46]: > 100000 nM
GI50 [47]: 203 nM and 133 nM
TGI [47]: 29800 nM and > 6670 nM
GI50 [48]: 302 nM and 132 nM
TGI [48]: > 100000 nM
GI50 [49]: 105 nM
TGI [49]: 494 nM
GI50 [50]: 23.5 nM and 21.7 nM
TGI [50]: 264 nM and 163 nM
GI50 [51]: 126 nM and 81 nM
TGI [51]: 1390 nM and 1410 nM
GI50 [52]: 257 nM and 88.5 nM
TGI [52]: 13800 nM and > 10000 nM
GI50 [53]: 52.6 nM and 37.6 nM
TGI [53]: 1270 nM and 1320 nM
GI50 [54]: 105 nM and 52.5 nM
TGI [54]: 696 nM and 414 nM
GI50 [55]: 40.7 nM and 30.3 nM
TGI [55]: 249 nM and 212 nM
GI50 [56]: 141 nM and 77.5 nM
TGI [56]: 23200 nM and > 10000 nM
GI50 [57]: 149 nM and 111 nM
TGI [57]: 5100 nM and > 4680 nM
GI50 [58]: 54 nM and 41 nM
TGI [58]: 707 nM and 444 nM
